Laboratory results published in patent US20060024376A1, “Methods and compositions for reducing toxicity associated with leflunomide treatment” (The University of Chicago, priority 2004, published 2006).
Values joined by “and” are separate entries in the source; they are usually repeats but may differ in a detail not shown here. Equal entries are not always repeated.

Key:
[1] = background statement, cited from earlier work
[2] = system: heart transplants from Brown-Norway rats; experiment: Heart transplant acute rejection: graft survival and inflammation score; assay type: in vivo, Lewis Rats; conditions: for Graft survival / Inflammation score (Mean) (0-3): orotic acid 0 mg/kg/day; for Inflammation score (Mean) (0-3): 0 = no inflammation
Protocol: Treatments included 0, 5, 10 or 15 mg/kg of leflunomide in combination with 0 or 100 mg/kg orotic acid.

[3] = Leflunomide toxicity measured by hematocrit; assay type: in vivo, Lewis rats; conditions: for Hct Week 0 / Hct Week 1 / Hct Week 2 / Hct Week 3 / Hct Week 4: individual rat; for Hct Week 0: baseline hematocrit; for Hct Week 1: week 1 of therapy; for Hct Week 2: week 2 of therapy; for Hct Week 3: week 3 of therapy; for Hct Week 4: week 4 of therapy
Protocol: The experiment of Example 2 was repeated in Lewis rats and the hematocrit measured weekly for four weeks. The rats receiving treatment were divided into five groups wherein each group received 30/mg/kg/day leflunomide, a toxic, high dose. Group I received leflunomide only. Group II received the leflunomide dose plus 36/mg/kg/day of sodium orotate; group III received the leflunomide dose plus 100 mg/kg/day of sodium orotate; group IV received the leflunomide dose plus 88 mg/kg/day of orotic acid; and group V received the leflunomide dose plus 250 mg/kg/day of uridine given IP. A baseline hematocrit was measured, and hematocrits of each rat were measured at weeks 1-4 post commencement of therapy.

## CC(=O)OC[C@H]1O[C@@H](n2ccc(=O)[nH]c2=O)[C@H](OC(C)=O)[C@@H]1OC(C)=O [TAU, 2′, 3′, 5′-tri-O-acetyl uridine]
[1]
  oral bioavailability: orally bioavailable

## Cc1oncc1C(=O)Nc1ccc(C(F)(F)F)cc1 [leflunomide, N-(4-trifluoromethylphenyl)-5-methylisoxazol-4-carboxamide]
[2]; leflunomide 5 mg/kg/day
  Graft survival: >30 days
  Inflammation score (Mean) (0-3): 2.0
[2]; leflunomide 10 mg/kg/day
  Graft survival: >30 days
  Inflammation score (Mean) (0-3): 1.7
[2]; leflunomide 15 mg/kg/day
  Graft survival: >30 days
  Inflammation score (Mean) (0-3): 1.5
[2]; leflunomide 5, 10, 15 mg/kg, dose-related
  Intensity of the rejection reaction (inflammation score): reduced the intensity of the rejection reaction
[3]; group mean, week 4
  Hct Week 4, group Mean: Mean: 23.8
[3]; listed as L 30
  Hct Week 0: 53 and 54 and 55 and 52
  Hct Week 1: 53 and 55 and 49 and 50
  Hct Week 2: 44 and 54 and 48 and 46
  Hct Week 3: 41 and 37 (2×) and 33
  Hct Week 4: 30 (2×) and 24 and 22
[3]; listed as L30
  Hct Week 0: 51 and 57
  Hct Week 1: 47 and 52
  Hct Week 2: 39 and 46
  Hct Week 3: 31 and 33
  Hct Week 4: 17 and 20

## O=C(O)c1cc(=O)[nH]c(=O)[nH]1 [orotic acid]
[2]; orotic acid 100 mg/kg with leflunomide 5-15 mg/kg
  Effect of orotic acid on efficacy of leflunomide to reduce the rejection reaction: did not significantly affect the efficacy of leflunomide
[1]; no test described
  bioavailability: approximately 50%
